We go through 27 molecules from patent publication US5034391A, “Piperazinylalkyl-3(2H)-pyridazinones and the use thereof as agents lowering blood pressure” (CL Pharma Aktiengesellschaft, priority 1988, dated 1991).

The target in one test is T1, alpha1 adrenoceptors (Rattus norvegicus, UniProt P15823).
T1 construct: from tissue; host or cells: rat cardiac membranes
T1 sequence (P15823 1-515): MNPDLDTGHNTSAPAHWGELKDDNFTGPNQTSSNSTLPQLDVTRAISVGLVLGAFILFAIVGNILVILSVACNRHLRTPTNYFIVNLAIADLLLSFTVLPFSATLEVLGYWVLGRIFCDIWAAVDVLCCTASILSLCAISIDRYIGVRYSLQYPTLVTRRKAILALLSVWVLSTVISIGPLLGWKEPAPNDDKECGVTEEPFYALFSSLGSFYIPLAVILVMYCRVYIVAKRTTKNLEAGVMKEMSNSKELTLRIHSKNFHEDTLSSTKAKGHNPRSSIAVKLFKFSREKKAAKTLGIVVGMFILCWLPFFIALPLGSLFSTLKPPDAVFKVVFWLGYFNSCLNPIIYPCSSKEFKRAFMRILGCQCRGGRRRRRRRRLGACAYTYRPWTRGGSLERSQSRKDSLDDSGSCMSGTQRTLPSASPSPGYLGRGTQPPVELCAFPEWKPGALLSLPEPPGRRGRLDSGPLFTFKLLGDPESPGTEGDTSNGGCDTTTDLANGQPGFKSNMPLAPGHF
As to the kind of experiment: Affinity for alpha1 adrenoceptors: displacement of tritiated prazosin on rat cardiac membranes. It is filed as binding. The settings on record: Ki from IC50 by Cheng and Prusoff, read-out: Inhibition constants at alpha-1-adrenoceptor (Ki). How it is done: The affinity of compounds of the general formula I for alpha1 adrenoceptors was established using the method described by R. S. Williams, D. F. Dukes and […] in J. Cardiovasc. Pharmacol. 3, 522-531 (1981). In this method the competitive displacement of tritiated prazosin (2-(4-(2-furoyl)-1-piperazinyl)-4-amino-6,7-dimethoxy-quinazoline) on rat-cardiac membranes by the test substances is measured, and the IC50 (50% inhibition concentration) is determined as that concentration which brings about a 50% inhibition of the specific binding of tritiated prazosin to the alpha1 adrenoceptors in rat cardiac membranes.
The concentration-independent inhibitor constants K1 -alpha1 were determined from the IC50 values as stated by Y. Cheng and H. W.Prusoff in Biochem. Pharmacol. 22, 3099-3108 (1973).

In a further test the target is T2, 5-HT-1A receptors (Rattus norvegicus, UniProt P19327).
T2 construct: 5-HT-1A receptors in rat brain membranes; from tissue; host or cells: rat brain membranes
T2 sequence (P19327 1-422): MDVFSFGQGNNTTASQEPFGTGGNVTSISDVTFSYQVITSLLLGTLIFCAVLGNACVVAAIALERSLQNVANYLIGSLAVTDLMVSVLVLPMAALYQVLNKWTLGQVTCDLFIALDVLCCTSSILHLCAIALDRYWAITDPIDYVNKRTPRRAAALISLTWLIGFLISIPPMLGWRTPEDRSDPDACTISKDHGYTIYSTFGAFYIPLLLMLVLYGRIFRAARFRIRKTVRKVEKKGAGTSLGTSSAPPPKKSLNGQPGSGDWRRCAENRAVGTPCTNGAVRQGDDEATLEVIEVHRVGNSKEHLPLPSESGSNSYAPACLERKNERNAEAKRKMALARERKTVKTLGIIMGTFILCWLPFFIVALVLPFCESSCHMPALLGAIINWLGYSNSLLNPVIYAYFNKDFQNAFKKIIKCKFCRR
The experiment in a line: Affinity for 5-HT-1A receptors: displacement of tritiated 8-OH-DPAT on rat brain membranes. The class given is binding. The note with it: Ki from IC50 by Cheng and Prusoff, read-out: Inhibition constants at 5-HT1A-receptor (Ki). How it is done: The affinity of compounds of the general formula I for 5-HT-1A receptors was determined by the method described by H. Gozlan, S. Elmestikawy, L. Pichat, J. Glowinski and M. Hamon in Nature 305, 140-142 (1983). In this method the competitive displacement of tritiated 8-OH-DPAT (8-hydroxy-(di-n-propylamino)tetralin) on rat brain membranes by the test substances is measured, and the IC50 (50% inhibition concentration) is determined as that concentration which brings about a 50% inhibition of the specific binding of tritiated 8-OH-DPAT to 5-HT-1A receptors in rat brain membranes.
The concentration-independent inhibitor constants K1 -alpha1 and K1 -5HT-1A were determined from the IC50 values as stated by Y. Cheng and H. W. Prusoff in Biochem. Pharmacol. 22, 3099-3108 (1973).

Take `Cn1nccc(NCCN2CCN(c3ccccc3)CC2)c1=O` [2-Methyl-4-((2-(4-phenylpiperazinyl-1)ethyl)amino)-3(2H) pyridazinone]: the inhibition constant Ki (usually a measure of affinity in units of concentration, obtained from inhibition or displacement) at alpha1 adrenoceptors turned out to be 90.3 nM; at 5-HT-1A receptors, 261 nM.
For `CCN(CCN1CCN(c2ccccc2OC)CC1)c1ccnn(C)c1=O` [2-Methyl-4-(ethyl-(2-(4-(2-methoxyphenyl)piperazinyl-1)ethyl)amino)-3(2H)-pyridazinone], the Ki on alpha1 adrenoceptors is 68 nM; on 5-HT-1A receptors, 40.7 nM.
In the same order, the values of `CCOc1ccccc1N1CCN(CCNc2cnn(C)c(=O)c2Cl)CC1` [2-Methyl-4-chloro-5-((2-(4-(2-ethoxyphenyl)piperazinyl-1)ethyl)amino)-3(2H)-pyridazinone] are 7.59 nM and 36.8 nM.
In the same order, the values of `Cn1ncc(NCCN2CCN(c3ccccc3F)CC2)c(Cl)c1=O` [2-Methyl-4-chloro-5-((2-(4-(2-fluorophenyl)piperazinyl-1)ethyl)amino)-3(2H)-pyridazinone] are 28.2 nM and 398 nM.
In the case of `COc1cc(C)ccc1N1CCN(CCNc2cnn(C)c(=O)c2Cl)CC1` [2-Methyl-4-chloro-5-((2-(4-(2-methoxy-4-methylphenyl)piperazinyl-1)ethyl)amino)-3(2H)-pyridazinone], the figures for the Ki on alpha1 adrenoceptors and on 5-HT-1A receptors were 31.4 nM and 478 nM, respectively.
As to `COc1ccc(C)cc1N1CCN(CCNc2cnn(C)c(=O)c2Cl)CC1` [2-Methyl-4-chloro-5-((2-(4-(2-methoxy-5-methylphenyl)piperazinyl-1)ethyl)amino)-3(2H)-pyridazinone], the inhibition constant (Ki) at alpha1 adrenoceptors is 6.98 nM; on 5-HT-1A receptors it was 510 nM.
In the same order, the values of `Cn1ncc(NCCN2CCN(c3cccc(C(F)(F)F)c3)CC2)c(Cl)c1=O` [2-Methyl-4-chloro-5-((2-(4-(3-trifluoromethylphenyl)piperazinyl-1)ethyl)amino-3(2H)-pyridazinone] are 94.2 nM and 28.5 nM.
`Cn1ncc(NCCN2CCN(c3ccccc3)CC2)c(Cl)c1=O` [2-Methyl-4-chloro-5-((2-(4-phenylpiperazinyl-1)ethyl)amino)-3(2H)-pyridazinone]: the Ki on alpha1 adrenoceptors came out at 4.05 nM; at 5-HT-1A receptors it was 106 nM.
For `COc1ccccc1N1CCN(CCCNc2cnn(C)c(=O)c2Cl)CC1` [2-Methyl-4-chloro-5-((3-(4-(2-methoxyphenyl)-1-piperazinyl)propyl)amino)-3(2H)-pyridazinone], the results for the Ki at alpha1 adrenoceptors and on 5-HT-1A receptors were 32.2 nM and 50.7 nM, respectively.
Regarding `COc1cc(C)ccc1N1CCN(CCNc2cnn(C)c(=O)c2)CC1` [2-Methyl-5-((2-(4-(2-methoxy-4-methylphenyl)piperazinyl-1)ethyl)amino)-3(2H)-pyridazinone], the inhibition constant (Ki) amounted to 207 nM on alpha1 adrenoceptors and 814 nM at 5-HT-1A receptors.
In the same order, the values of `COc1ccc(C)cc1N1CCN(CCNc2cnn(C)c(=O)c2)CC1` [2-Methyl-5-((2-(4-(2-methoxy-5-methylphenyl)piperazinyl-1)ethyl)amino)-3(2H)-pyridazinone] are 82.6 nM and 523 nM.
As to `COc1ccccc1N1CCN(CCNc2cnn(C)c(=O)c2)CC1` [2-Methyl-5-((2-(4-(2-methoxyphenyl)-1-piperazinyl)ethyl)amino)-3(2H)-pyridazinone], the inhibition constant (Ki) on alpha1 adrenoceptors came to 190 nM; at 5-HT-1A receptors, 43.6 nM.
For `Cn1ncc(NCCN2CCN(c3ccccc3)CC2)cc1=O` [2-Methyl-5-((2-(4-phenylpiperazinyl-1)ethyl)amino)-3(2H)-pyridazinone] the same measures were 157 nM and 274 nM.
With `CCN(CCN1CCN(c2ccccc2OC)CC1)c1cnn(C)c(=O)c1` [2-Methyl-5-(ethyl-(2-(4-(2-methoxyphenyl)piperazinyl-1)ethyl)amino)-3(2H)-pyridazinone], the figures for the inhibitory constant (Ki) at alpha1 adrenoceptors and at 5-HT-1A receptors were 20.6 nM and 24.2 nM, respectively.
In the same order, the values of `COc1ccccc1N1CCN(CCNc2c(Br)cnn(C)c2=O)CC1` [2-Methyl-5-bromo-4-((2-(4-(2-methoxyphenyl)-1-piperazinyl)ethyl)amino)-3(2H)-pyridazinone] are 1.33 nM and 16.2 nM.
Consider `Cn1ncc(Cl)c(NCCN2CCN(c3ccccc3F)CC2)c1=O` [2-Methyl-5-chloro-4-((2-(4-(2-fluorophenyl)piperazinyl-1)ethyl)amino-3(2H)-pyridazinone], for which the results for the inhibition constant (Ki) on alpha1 adrenoceptors and on 5-HT-1A receptors were 2.51 nM and 80.8 nM, respectively.
Turning to `COc1cc(C)ccc1N1CCN(CCNc2c(Cl)cnn(C)c2=O)CC1` [2-Methyl-5-chloro-4-((2-(4-(2-methoxy-4-methylphenyl)piperazinyl-1)ethyl)amino)-3(2H)-pyridazinone], the values for the inhibition constant Ki on alpha1 adrenoceptors and on 5-HT-1A receptors were 22.4 nM and 126 nM, respectively.
`COc1ccc(C)cc1N1CCN(CCNc2c(Cl)cnn(C)c2=O)CC1` [2-Methyl-5-chloro-4-((2-(4-(2-methoxy-5-methylphenyl)piperazinyl-1)ethyl)amino)-3(2H)-pyridazinone]: the Ki worked out at 6.01 nM at alpha1 adrenoceptors and 85.1 nM at 5-HT-1A receptors.
For `COc1ccccc1N1CCN(CCNc2c(Cl)cnn(C)c2=O)CC1` [2-Methyl-5-chloro-4-((2-(4-(2-methoxyphenyl)-1-piperazinyl)ethyl)amino)-3(2H)-pyridazinone] the same measures were 1.5 nM and 16.6 nM.
Consider `Cn1ncc(Cl)c(NCCN2CCN(c3cccc(C(F)(F)F)c3)CC2)c1=O` [2-Methyl-5-chloro-4-((2-(4-(3-trifluoromethylphenyl)piperazinyl-1)ethyl)amino-3(2H)-pyridazinone], for which the inhibitory constant (Ki) on alpha1 adrenoceptors was found to be 47.3 nM; on 5-HT-1A receptors it was 8.31 nM.
As for `Cn1ncc(Cl)c(NCCN2CCN(c3ccccc3)CC2)c1=O` [2-Methyl-5-chloro-4-((2-(4-phenylpiperazinyl-1)ethyl)amino)-3(2H)-pyridazinone], the figures for the Ki on alpha1 adrenoceptors and at 5-HT-1A receptors were 86.7 nM and 519 nM, respectively.
For `COc1ccccc1N1CCN(CCNc2cc(Cl)nn(C)c2=O)CC1` [2-Methyl-6-chloro-4-((2-(4-(2-methoxyphenyl)piperazinyl-1)ethyl)amino)-3(2H)-pyridazinone] the same measures were 5.63 nM and 28.4 nM.
For `COc1ccccc1N1CCN(CCCNc2cc(Cl)nn(C)c2=O)CC1` [2-Methyl-6-chloro-4-((3-(4-(2-methoxyphenyl)-1-piperazinyl)propyl)amino)-3(2H)-pyridazinone], the Ki was determined as 11 nM on alpha1 adrenoceptors and 46.6 nM on 5-HT-1A receptors.
In the same order, the values of `COc1ccccc1N1CCN(CCNc2cnn(-c3ccccc3)c(=O)c2Cl)CC1` [2-Phenyl-4-chloro-5-((2-(4-(2-methoxyphenyl)piperazinyl-1)ethyl)amino)-3(2H)-pyridazinone] are 4.48 nM and 75.8 nM.
In the same order, the values of `COc1ccccc1N1CCN(CCNc2cnn(C)c(=O)c2Br)CC1` [2-methyl-4-bromo-5-((2-(4-(2-methoxyphenyl)-1-piperazinyl)ethyl)amino)-3(2H)-pyridazinone] are 5.88 nM and 33.6 nM.
For `COc1ccccc1N1CCN(CCNc2cnn(C)c(=O)c2Cl)CC1` [2-methyl-4-chloro-5-((2-(4-(2-methoxyphenyl)-1-piperazinyl)ethyl)amino)-3(2H)-pyridazinone], the inhibition constant (Ki) at alpha1 adrenoceptors turned out to be 7.57 nM; on 5-HT-1A receptors it was 63.2 nM.
Consider `COc1ccccc1N1CCN(CCCNc2c(Cl)cnn(C)c2=O)CC1` [2-methyl-5-chloro-4-((3-(4-(2-methoxyphenyl)-1-piperazinyl)propyl)amino)-3(2H)-pyridazinone], for which the inhibition constant (Ki) came to 3.48 nM on alpha1 adrenoceptors and 1.4 nM at 5-HT-1A receptors.
